Patent EP4635969A1, “NOVEL GLUCOCORTICOID, METHOD FOR PREPARING SAME, AND USE THEREOF” (Tianjin Pharmaceutical Biotechnology Co., Ltd., priority 2022, dated 2024)
Like-named read-outs stand apart in the source and are kept apart here.

Molecular target: T1, progesterone receptor (PR) (Homo sapiens, UniProt P06401)
T1 sequence (P06401 678-933): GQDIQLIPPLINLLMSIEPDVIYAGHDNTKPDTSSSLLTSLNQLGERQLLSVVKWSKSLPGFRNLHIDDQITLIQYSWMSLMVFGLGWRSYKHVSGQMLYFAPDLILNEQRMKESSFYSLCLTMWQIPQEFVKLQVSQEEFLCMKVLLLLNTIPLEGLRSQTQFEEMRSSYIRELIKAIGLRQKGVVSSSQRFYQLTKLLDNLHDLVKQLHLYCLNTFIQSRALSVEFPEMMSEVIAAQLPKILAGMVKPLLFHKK
Assay: Assay for agonist activity on progesterone receptor (luciferase reporter, HEK293 cells transfected with pBIND-PR plasmid)
Format: cell-based
Conditions: for Target selectivity PR/GR: ratio of EC50 values
Outline: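 HEK293 cells transiently transfected with pBIND-MR or pBIND-PR, seeded in phenol red-free DMEM with 5% charcoal-stripped serum. Compounds tested as 12-point 4-fold dilutions from 50 µM in duplicate, 0.1% DMSO blank. Luciferase luminescence read, EC50 by nonlinear fit.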

[1] = EC50 of agonist activity, HEK293 reporter cells, top concentration 50 µM, read-out: Nuclear receptor enzyme activity (nM) PR

Compound: C[C@]12C=CC(=O)C=C1[C@@H](F)C[C@H]1[C@@H]3C[C@H]4OC(c5ccc(CSC6CCOC6=O)cc5)O[C@@]4(C(=O)SCF)[C@@]3(C)C[C@H](O)[C@@]12F (stereo partly drawn) [Compound 34, S-(Fluoromethyl) (2S,6aS,6bR,7S,8aS,8bS,11aR,12aS,12bS)-2,6b-difluoro-7-hydroxy-6a,8a-dimethyl-4-oxo-10-(4-( ((2-oxotetrahydrofuran-3-yl)thio)methyl)phenyl)-1,2,4,6a,6b,7,8,8a,11a,12,12a,12b-dodecahydro-8bH-naphtho[2',1':4,5]indeno[1,2-d][1,3]dioxole-8b-carbothioate]
- EC50: > 50000 nM
- Target selectivity PR/GR: > 5.0×10^5

Compound: C[C@]12C=CC(=O)C=C1CC[C@H]1[C@@H]3C[C@H]4OC(c5ccc(CSC6CCOC6=O)nc5)O[C@@]4(C(=O)CO)[C@@]3(C)C[C@H](O)[C@@]12F (stereo partly drawn) [Compound 47, (6aS,6bR,7S,8aS,8bS,11aR,12aS,12bS)-6b-Fluoro-7-hydroxy-8b-(2-hydroxyacetyl)-6a,8a-dimethyl-10-(6-(((2-oxotetrahydrofuran-3-yl)thio)methyl)pyridin-3-yl)-1,2,6a,6b,7,8,8a,8b,11a,12,12a,12 b-dodecahydro-4H-naphtho[2',1':4,5]indeno[1,2-d][1,3]dioxol-4-one]
- EC50: > 50000 nM
- Target selectivity PR/GR: > 1.5×10^5

Compound: C[C@]12C=CC(=O)C=C1CC[C@H]1[C@@H]3C[C@H]4OC(c5ccc(COC6CCOC6=O)cc5)O[C@@]4(C(=O)CO)[C@@]3(C)C[C@H](O)[C@@]12Cl (stereo partly drawn) [Compound 22, (6aS,6bR,7S,8aS,8bS,11aR,12aS,12bS)-6b-Chloro-7-hydroxy-8b-(2-hydroxyacetyl)-6a,8a-dimethyl-10-(4-(((2-oxotetrahydrofuran-3-yl)oxy)methyl)phenyl)-1,2,6a,6b,7,8,8a,8b,11a,12,12a,12b-do decahydro-4H-naphtho[2',1':4,5]indeno[1,2-d][1,3]dioxol-4-one]
- EC50: > 50000 nM
- Target selectivity PR/GR: > 9.1×10^4

Compound: C[C@]12C=CC(=O)C=C1CC[C@H]1[C@@H]3C[C@H]4OC(c5ccc(CSC6CCOC6=O)cc5)O[C@@]4(C(=O)CO)[C@@]3(C)C[C@H](O)[C@@]12Cl (stereo partly drawn) [Compound 23, (6aS,6bR,7S,8aS,8bS,11aR,12aS,12bS)-6b-Chloro-7-hydroxy-8b-(2-hydroxyacetyl)-6a,8a-dimethyl-10-(4-(((2-oxotetrahydrofuran-3-yl)thio)methyl)phenyl)-1,2,6a,6b,7,8,8a,8b,11a,12,12a,12b-do decahydro-4H-naphtho[2',1':4,5]indeno[1,2-d][1,3]dioxol-4-one]
- EC50 [1]: > 50000 nM
- Target selectivity PR/GR: > 2.4×10^5

Compound: C[C@]12C=CC(=O)C=C1[C@@H](F)C[C@H]1[C@@H]3C[C@H]4OC(c5ccc(CSC6CCOC6=O)cc5)O[C@@]4(C(=O)OCF)[C@@]3(C)C[C@H](O)[C@@]12F (stereo partly drawn) [Compound 36, Fluoromethyl (2S,6aS,6bR,7S,8aS,8bS,11aR,12aS,12bS)-2,6b-difluoro-7-hydroxy-6a,8a-dimethyl-4-oxo-10-(4-( ((2-oxotetrahydrofuran-3-yl)thio)methyl)phenyl)-1,2,4,6a,6b,7,8,8a,11a,12,12a,12b-dodecahydro-8bH-naphtho[2',1':4,5]indeno[1,2-d][1,3]dioxole-8b-carboxylate]
- EC50: > 50000 nM
- Target selectivity PR/GR: > 4.2×10^5

Compound: C[C@]12C=CC(=O)C=C1CC[C@H]1[C@@H]3C[C@H]4OC(c5ccc(CSC6CCOC6=O)cc5)O[C@@]4(C(=O)CO)[C@@]3(C)C[C@H](O)[C@@]12F (stereo partly drawn) [Compound 17, (6aS,6bR,7S,8aS,8bS,11aR,12aS,12bS)-6b-Fluoro-7-hydroxy-8b-(2-hydroxyacetyl)-6a,8a-dimethyl-10-(4-(((2-oxotetrahydrofuran-3-yl)thio)methyl)phenyl)-1,2,6a,6b,7,8,8a,8b,11a,12,12a,12b-do decahydro-4H-naphtho[2',1':4,5]indeno[1,2-d][1,3]dioxol-4-one]
- EC50 [1]: > 50000 nM
- Target selectivity PR/GR: > 1.7×10^5

Compound: C[C@]12C=CC(=O)C=C1[C@@H](F)C[C@H]1[C@@H]3C[C@H]4OC(c5ccc(CSC6CCOC6=O)cc5)O[C@@]4(C(=O)SCC#N)[C@@]3(C)C[C@H](O)[C@@]12F (stereo partly drawn) [Compound 35, S-(Cyanomethyl) (2S,6aS,6bR,7S,8aS,8bS,11aR,12aS,12bS)-2,6b-difluoro-7-hydroxy-6a,8a-dimethyl-4-oxo-10-(4-( ((2-oxotetrahydrofuran-3-yl)thio)methyl)phenyl)-1,2,4,6a,6b,7,8,8a,11a,12,12a,12b-dodecahydro-8bH-naphtho[2',1':4,5]indeno[1,2-d][1,3]dioxole-8b-carbothioate]
- EC50: > 50000 nM
- Target selectivity PR/GR: > 2.4×10^5

Compound: C[C@]12C=CC(=O)C=C1CC[C@H]1[C@@H]3C[C@H]4OC(c5ccc(COC6CCOC6=O)cc5)O[C@@]4(C(=O)CO)[C@@]3(C)C[C@H](O)[C@@]12F (stereo partly drawn) [Compound 16, (6aS,6bR,7S,8aS,8bS,11aR,12aS,12bS)-6b-Fluoro-7-hydroxy-8b-(2-hydroxyacetyl)-6a,8a-dimethyl-10-(4-(((2-oxotetrahydrofuran-3-yl)oxy)methyl)phenyl)-1,2,6a,6b,7,8,8a,8b,11a,12,12a,12b-do decahydro-4H-naphtho[2',1':4,5]indeno[1,2-d][1,3]dioxol-4-one]
- EC50: > 50000 nM
- Target selectivity PR/GR: > 1.2×10^5
